One assay has as its target T1, FLT3 kinase (Homo sapiens, UniProt P36888).
T1 construct: made in house; host or cells: T7 phage display or HEK-293 cells
T1 sequence (P36888 27-993): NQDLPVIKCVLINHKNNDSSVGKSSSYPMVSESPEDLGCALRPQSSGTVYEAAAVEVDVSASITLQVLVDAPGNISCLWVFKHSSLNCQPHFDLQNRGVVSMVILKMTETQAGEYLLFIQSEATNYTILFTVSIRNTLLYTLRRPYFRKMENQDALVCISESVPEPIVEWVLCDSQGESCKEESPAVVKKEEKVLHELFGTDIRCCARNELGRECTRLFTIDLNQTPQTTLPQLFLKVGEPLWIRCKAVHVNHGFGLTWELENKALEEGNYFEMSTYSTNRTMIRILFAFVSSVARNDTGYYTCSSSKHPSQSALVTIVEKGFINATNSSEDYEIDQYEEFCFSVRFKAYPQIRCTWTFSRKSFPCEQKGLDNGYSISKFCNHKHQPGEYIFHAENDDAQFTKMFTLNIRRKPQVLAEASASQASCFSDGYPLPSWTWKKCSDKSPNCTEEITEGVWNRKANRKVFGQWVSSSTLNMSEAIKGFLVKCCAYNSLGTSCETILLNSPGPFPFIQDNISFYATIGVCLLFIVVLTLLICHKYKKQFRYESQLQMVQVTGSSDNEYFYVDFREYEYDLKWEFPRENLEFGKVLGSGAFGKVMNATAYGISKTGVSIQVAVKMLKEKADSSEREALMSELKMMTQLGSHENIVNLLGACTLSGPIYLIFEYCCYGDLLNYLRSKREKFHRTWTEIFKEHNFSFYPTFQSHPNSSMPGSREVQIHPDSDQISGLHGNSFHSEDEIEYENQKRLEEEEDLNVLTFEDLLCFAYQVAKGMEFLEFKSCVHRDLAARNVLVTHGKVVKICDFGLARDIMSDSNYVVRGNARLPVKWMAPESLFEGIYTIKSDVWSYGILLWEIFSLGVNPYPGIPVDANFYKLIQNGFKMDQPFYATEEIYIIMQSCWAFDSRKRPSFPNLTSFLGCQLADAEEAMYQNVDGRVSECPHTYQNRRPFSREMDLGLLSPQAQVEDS
As to the kind of experiment: Competition binding assay, FLT3 Kd. In outline: (§1)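 Kd values derived from an eleven-point, threefold compound dilution series in a bead-based competition format: kinase (phage-fused or HEK-293-derived with DNA tag), ligand-coated streptavidin beads and compound equilibrated 1 h at room temperature. After washing, retained kinase was eluted with non-biotinylated ligand (0.5 μM) and measured by quantitative PCR.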

Another assay concerns the target T2, KIT kinase (Homo sapiens, UniProt P10721).
T2 construct: made in house; host or cells: T7 phage display or HEK-293 cells
The experiment in a line: Competition binding assay, KIT Kd. In outline:
as §1

The next assay deals with T3, CSF-1R kinase (Homo sapiens, UniProt P07333).
T3 construct: made in house; host or cells: T7 phage display or HEK-293 cells
The experiment in a line: Competition binding assay, CSF-1R Kd. In outline: as §1

Another assay relates to MV4-11 cells. As to the kind of experiment: MV4-11 cell proliferation assay (Alamar Blue). The assay is classed as cell-based. The settings on record: 3 days incubation. In outline:
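Flt3-ITD MV4-11 cells were serum-starved overnight in Iscove's with 0.5% FBS, then given compound at 9 half-log concentrations (0.5% DMSO) for 3 days at 37° C. Alamar Blue reduction was read after 3 h by fluorescence (560/590 nm). IC50 is the mean of duplicates versus negative control.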
A general note: Alamar Blue is a resazurin reagent that responds to reducing activity.

The target in assay [1] is kinase panel containing either 359 or 386 distinct kinases. As to the kind of experiment: Selectivity score S10 from competition binding against a panel of kinases. The settings on record: compounds at 10 μM; for Kinase specificty: S(10)-386 panel: panel of 386 distinct kinases; for Kinase specificty: S(10)-359 panel: panel of 359 distinct kinases. As for the experimental part: Competition binding assays used herein were developed, validated and performed as described in Fabian et al., Nature Biotechnology 2005, 23,329-336. Kinases were produced as fusions to T7 phage (See, Fabian et al. or WO04/015142) or alternatively, the kinases were expressed in HEK-293 cells and subsequently tagged with DNA for PCR detection (See, WO08/005,310). For the binding assays, streptavidin-coated magnetic beads were treated with biotinylated affinity ligands for 30 min at room temperature to generate affinity resins. The liganded beads were blocked with excess biotin and washed with blocking buffer (SeaBlock (Pierce), 1% BSA, 0.05% Tween 20, 1 mM DTT) to remove unbound ligand and to reduce non-specific binding. Binding reactions were assembled by combining kinase, liganded affinity beads, and test compounds in 1× binding buffer (20% SeaBlock, 0.17×PBS, 0.05% Tween 20, 6 mM DTT). Test compounds were prepared as 100× stocks in DMSO and diluted into the aqueous environment. Kds were determined using an eleven point threefold serial dilutions. DMSO or control compounds were was added to control assays lacking a test compound. Primary screen assays were performed in polypropylene 384-well plates in a final volume of 20-40 μL, while Kd determinations were performed in polystyrene 96-well plates in a final volume of 135 μL. The assay plates were incubated at room temperature with shaking for 1 hour to allow the binding reactions to reach equilibrium, and the affinity beads were washed extensively with wash buffer (1×PBS, 0.05% Tween 20) to remove unbound protein. The beads were then resuspended in elution buffer (1×PBS, 0.05% Tween 20, 0.5 μM non-biotinylated affinity ligand) and incubated at room temperature with shaking for 30 min. The kinase concentration in the eluates was measured by quantitative PCR.
A selectivity score (S10) is a quantitative measure of selectivity of a compound against a panel of kinases. An S10 was calculated for a compound by dividing the number of kinases found to have a percent of control (DMSO) less than 10 by the total number of distinct kinases tested (excluding mutant variants). Percent of control (POC) is calculated by subtracting the signal of the control compound (POC=0) from the signal of the test compound and dividing the outcome by the signal of DMSO (POC=100) minus the signal of the control compound. For the compounds disclosed herein, S10 scores were obtained by testing the compounds at 10 μM concentration in a kinase panel containing either 359 or 386 distinct kinases.

T2 sequence (P10721 26-976): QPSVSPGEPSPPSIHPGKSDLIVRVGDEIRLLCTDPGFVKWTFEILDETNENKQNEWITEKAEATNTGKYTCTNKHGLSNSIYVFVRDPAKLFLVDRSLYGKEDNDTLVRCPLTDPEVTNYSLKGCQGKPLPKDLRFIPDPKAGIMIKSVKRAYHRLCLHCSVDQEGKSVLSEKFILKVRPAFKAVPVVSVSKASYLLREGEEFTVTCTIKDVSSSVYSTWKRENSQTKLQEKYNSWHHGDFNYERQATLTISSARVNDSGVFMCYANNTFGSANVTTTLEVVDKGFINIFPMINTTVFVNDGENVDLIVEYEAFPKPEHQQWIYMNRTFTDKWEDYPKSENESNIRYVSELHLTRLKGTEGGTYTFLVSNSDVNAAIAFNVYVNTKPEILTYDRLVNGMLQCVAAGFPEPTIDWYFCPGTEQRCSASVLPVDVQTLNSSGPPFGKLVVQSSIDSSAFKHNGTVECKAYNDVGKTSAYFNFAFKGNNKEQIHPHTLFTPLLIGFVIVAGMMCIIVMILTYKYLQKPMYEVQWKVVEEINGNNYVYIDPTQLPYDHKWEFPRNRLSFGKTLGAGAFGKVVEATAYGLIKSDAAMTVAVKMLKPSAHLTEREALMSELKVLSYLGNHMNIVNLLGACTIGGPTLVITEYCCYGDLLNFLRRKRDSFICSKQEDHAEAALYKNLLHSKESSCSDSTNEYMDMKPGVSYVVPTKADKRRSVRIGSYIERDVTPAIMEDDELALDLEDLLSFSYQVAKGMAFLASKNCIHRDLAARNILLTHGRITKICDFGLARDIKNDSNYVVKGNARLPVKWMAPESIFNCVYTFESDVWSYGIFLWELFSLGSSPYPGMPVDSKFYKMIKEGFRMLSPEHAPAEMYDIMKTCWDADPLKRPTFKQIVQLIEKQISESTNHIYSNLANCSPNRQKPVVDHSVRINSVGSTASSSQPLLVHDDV
T3 sequence (P07333 20-972): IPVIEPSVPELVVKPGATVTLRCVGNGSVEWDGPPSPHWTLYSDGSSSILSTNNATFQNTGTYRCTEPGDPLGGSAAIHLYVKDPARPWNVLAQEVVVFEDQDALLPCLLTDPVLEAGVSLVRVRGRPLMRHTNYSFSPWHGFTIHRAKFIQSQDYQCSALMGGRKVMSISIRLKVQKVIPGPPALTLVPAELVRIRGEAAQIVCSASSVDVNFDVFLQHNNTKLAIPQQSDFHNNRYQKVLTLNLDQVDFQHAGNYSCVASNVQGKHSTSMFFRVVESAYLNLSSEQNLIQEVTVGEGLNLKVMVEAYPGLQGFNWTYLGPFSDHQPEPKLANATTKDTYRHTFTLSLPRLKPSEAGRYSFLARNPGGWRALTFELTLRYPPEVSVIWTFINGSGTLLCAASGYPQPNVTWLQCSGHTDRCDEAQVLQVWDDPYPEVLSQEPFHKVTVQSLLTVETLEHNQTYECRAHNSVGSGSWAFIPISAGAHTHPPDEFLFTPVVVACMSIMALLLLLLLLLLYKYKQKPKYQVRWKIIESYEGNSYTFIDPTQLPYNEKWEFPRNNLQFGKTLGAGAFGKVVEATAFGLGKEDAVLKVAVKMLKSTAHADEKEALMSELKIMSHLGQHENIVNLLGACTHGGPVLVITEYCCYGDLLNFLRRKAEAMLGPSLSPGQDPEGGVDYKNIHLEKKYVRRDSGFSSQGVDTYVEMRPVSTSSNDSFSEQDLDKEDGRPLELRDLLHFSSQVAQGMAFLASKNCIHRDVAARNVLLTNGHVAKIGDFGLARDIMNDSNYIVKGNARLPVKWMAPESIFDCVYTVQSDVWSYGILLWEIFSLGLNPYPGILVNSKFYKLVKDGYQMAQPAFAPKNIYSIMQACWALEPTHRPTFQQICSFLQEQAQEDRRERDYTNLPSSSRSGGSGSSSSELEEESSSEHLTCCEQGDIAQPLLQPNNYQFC

With “2-(4-(6-aminopyridin-3-yl)phenyl)-N-(3-tert-butyl-1H-pyrazol-1-yl)acetamide and 2-(4-(6-aminopyridin-3-yl)phenyl)-N-(5-tert-butyl-1H-pyrazol-1-yl)acetamide [Example 91]”, the Kd at FLT3 kinase is at most 1 nM; on KIT kinase it was 1 to 10 nM; on CSF-1R kinase, 10 to 100 nM. This molecule returned a half-maximal inhibitory concentration (IC50) with MV4-11 cells of 1 to 10 nM. Also, the “Kinase specificty: S(10)-386 panel” value in assay [1] is “A (A≦0.1)”.

With `CC(C)(C)c1cc(NC(=O)Nc2ccc(-c3ccc(N)nc3)cc2)no1` [Example 1, 1-(4-(6-aminopyridin-3-yl)phenyl)-3-(5-tert-butylisoxazol-3-yl)urea], the Kd was at most 1 nM on FLT3 kinase, at most 1 nM at KIT kinase and at most 10 nM on CSF-1R kinase. The same molecule displayed a concentration for half-maximal inhibition (IC50) in the assay with MV4-11 cells (Homo sapiens, MV4-11, 72 h) of at most 1 nM. In addition, the “Kinase specificty: S(10)-359 panel” value in assay [1] is given as “A (A≦0.1)”. Besides, the “Kinase specificty: S(10)-386 panel” value in assay [1] was “A (A≦0.1)”.

Turning to `CC(C)(C)c1cc(NC(=O)Nc2ccc(-c3cnc(N)c(C#N)c3)cc2)no1` [Example 2, 1-[4-(6-amino-5-cyanopyridin-3-yl)-phenyl]-3-(5-tert-butylisoxazol-3-yl)urea], the Kd at FLT3 kinase was at most 1 nM; at KIT kinase it was 1 to 10 nM; on CSF-1R kinase, at most 10 nM. In the assay with MV4-11 cells (Homo sapiens, MV4-11, 72 h), this molecule came in with a concentration for half-maximal inhibition (IC50) of at most 1 nM. The “Kinase specificty: S(10)-359 panel” value in assay [1] is “B (0.1<B≦0.2 nM)”.

As for `CC(C)(C)c1cc(NC(=O)Nc2ccc(-c3cnc4c(c3)OCC(=O)N4)cc2)no1` [Example 3, 1-(5-tert-butylisoxazol-3-yl)-3-(4-(3-oxo-3,4-dihydro-2H-pyrido[3,2-b][1,4]oxazin-7-yl)phenyl)urea], the values for the Kd on FLT3 kinase, on KIT kinase and at CSF-1R kinase were at most 1 nM, at most 1 nM and at most 10 nM, respectively. Besides, in the assay with MV4-11 cells (Homo sapiens, MV4-11, 72 h), the IC50 was at most 1 nM. In addition, the “Kinase specificty: S(10)-359 panel” value in assay [1] is “A (A≦0.1)”.

As for `CC(C)(C)c1cc(NC(=O)Nc2ccc(-c3cnc4c(c3)OCCN4)cc2)no1` [Example 4, 1-(5-tert-butylisoxazol-3-yl)-3-(4-(3,4-dihydro-2H-pyrido[3,2-b][1,4]oxazin-7-yl)phenyl)urea], the results for the Kd at FLT3 kinase, on KIT kinase and on CSF-1R kinase were 1 to 10 nM, 1 to 10 nM and at most 10 nM, respectively. In the assay with MV4-11 cells (Homo sapiens, MV4-11, 72 h), this molecule returned an IC50 of 1 to 10 nM. Further, in assay [1], the “Kinase specificty: S(10)-359 panel” value is listed as “B (0.1<B≦0.2 nM)”.

Turning to `CC(C)(C)c1cc(NC(=O)Nc2ccc(-c3cnc4c(c3)OCC(CCO)N4)cc2)no1` (centres unmarked) [Example 5, 1-(5-tert-butylisoxazol-3-yl)-3-(4-(3-(2-hydroxyethyl)-3,4-dihydro-2H-pyrido[3,2-b][1,4]oxazin-7-yl)phenyl)urea], the dissociation constant (Kd) is at most 1 nM on FLT3 kinase, 1 to 10 nM on KIT kinase and at most 10 nM on CSF-1R kinase. In the assay with MV4-11 cells (Homo sapiens, MV4-11, 72 h), this molecule yielded an IC50 of at most 1 nM. For the same molecule, in assay [1], the “Kinase specificty: S(10)-359 panel” value is recorded as “B (0.1<B≦0.2 nM)”.

`CC(C)(C)c1cc(NC(=O)Nc2ccc(-c3cnc(NCCN4CCOCC4)nc3)cc2)no1` [Example 45, 1-(5-tert-butylisoxazol-3-yl)-3-{4-[2-(2-morpholin-4-yl-ethylamino)-pyrimidin-5-yl]phenyl}urea]: the dissociation constant Kd on FLT3 kinase was at most 1 nM; at KIT kinase it was at most 1 nM; on CSF-1R kinase it was at most 10 nM. Besides, in assay [1], the “Kinase specificty: S(10)-359 panel” value is reported as “B (0.1<B≦0.2 nM)”.

As for `COc1cc(-c2cnc(N)nc2)ccc1NC(=O)Nc1cc(C(C)(C)C)on1` [Example 48, 1-[4-(2-aminopyrimidin-5-yl)-2-methoxy-phenyl]-3-(5-tert-butylisoxazol-3-yl)-urea], the results for the dissociation constant (Kd) on FLT3 kinase, at KIT kinase and on CSF-1R kinase were 1 to 10 nM, 1 to 10 nM and at most 10 nM, respectively. For the same molecule, the “Kinase specificty: S(10)-359 panel” value in assay [1] is “A (A≦0.1)”.

As to `CC(C)(C)c1cc(NC(=O)Nc2ccc(-c3cnc(CN4CCOCC4)nc3)cc2)no1` [Example 51, 1-(5-tert-butylisoxazol-3-yl)-3-(4-(2-(morpholinomethyl)pyrimidin-5-yl)phenyl)urea], the Kd at FLT3 kinase was 10 to 100 nM; on KIT kinase it was 1 to 10 nM; on CSF-1R kinase it was 100 to 500 nM. Further, in assay [1], the “Kinase specificty: S(10)-359 panel” value is listed as “A (A≦0.1)”.

`CS(=O)(=O)O.Cc1cc(-c2ccc(CC(=O)Nc3cc(C4(C(F)(F)F)CC4)on3)cc2)cnc1N` [Example 130]: in assay [1], the “Kinase specificty: S(10)-386 panel” value is reported as “A (A≦0.1)”.

A word on the Kd: it is the constant that tells how readily two partners part at equilibrium. Lower therefore signals a tighter complex. For orientation: IC50 means the midpoint of a concentration-inhibition curve. Low values mean higher potency, high ones lower potency.
